Drawing on ChEMBL document CHEMBL1145120, “Molecular modeling of the three-dimensional structure of dopamine 3 (D3) subtype receptor: discovery of novel and potent D3 ligands through a hybrid pharmacophore- and structure-based database searching approach” (J Med Chem, 2003), this text covers Ki for 34 compounds.

Each structure is given as a SMILES string. pKi: −log10 of the molar value.

T1 sequence (P35462 whole entry): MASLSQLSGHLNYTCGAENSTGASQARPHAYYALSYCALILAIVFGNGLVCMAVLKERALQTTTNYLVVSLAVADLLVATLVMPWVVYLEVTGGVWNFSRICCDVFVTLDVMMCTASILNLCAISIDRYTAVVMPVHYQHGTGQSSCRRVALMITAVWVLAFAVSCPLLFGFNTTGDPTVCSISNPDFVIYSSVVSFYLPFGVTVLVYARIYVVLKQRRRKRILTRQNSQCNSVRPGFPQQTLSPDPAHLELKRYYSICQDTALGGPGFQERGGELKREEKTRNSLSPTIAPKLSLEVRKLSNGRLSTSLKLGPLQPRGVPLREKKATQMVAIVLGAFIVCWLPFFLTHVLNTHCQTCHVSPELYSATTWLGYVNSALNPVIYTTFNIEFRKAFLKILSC

One assay has as its target T1, D(3) dopamine receptor (Homo sapiens, UniProt P35462).
Assay: not given
As usually defined, the pKi is the Ki on a negative log10 scale, so that one unit is a factor of ten. Take `CCCCN1CCCC1CNC(=O)c1cc(C#N)c2ccccc2c1OC` (centres undefined) [NAFADOTRIDE]: the pKi was 9.09.

For another assay, the target named is T1, D(3) dopamine receptor. The experiment in a line: biochemical.
As to `CCCN[C@@H]1CCc2c(OC)cccc2[C@@H]1C`, the pKi was 7.15.

With `OC1(c2ccc(Cl)cc2)CCN(Cc2c[nH]c3ccccc23)CC1`, the pKi is 7.22.

Regarding `CCCN(CCC)C1CCc2cc3c(cc2C1)OCC3` (centres undefined), the pKi is 7.89.

`CCN(CC)CCNC(=O)c1cc(Cl)c(N)cc1OC` [METOCLOPRAMIDE]: the pKi is 7.57.

The target in a further assay is T1, D(3) dopamine receptor. The experiment in a line: Compound was measured for its ability to compete with [3H]spiperone binding to the human Dopamine receptor D3 transfected in CHO cells. Type of assay: cell-based.
Turning to `CCCN1CCOC2c3cc(O)ccc3OC[C@H]21` (some centres undefined), the pKi was 8.96.

Turning to `CCN1CCC[C@H]1CNC(=O)c1c(O)c(Cl)cc(Cl)c1OC` [RACLOPRIDE], the pKi is 8.43.

Another assay deals with T1, D(3) dopamine receptor.
Assay: not given
This is another data set of the same source.
Consider `OC(CCCN1CCN2CCc3[nH]c4ccccc4c3C2C1)c1ccc(F)cc1` (centres undefined), for which the pKi was 5.62.

`O=C(CCN1CCN2c3ccccc3CCC2C1)c1ccc(F)cc1` (centres undefined): the pKi is 6.33.

As to `O=c1[nH]c2ccccc2n1CCCN1CCN(C(c2ccccc2)c2ccccc2)CC1` [OXATOMIDE], the pKi is 7.20.

`CCCCCCCN1CCC(C(=O)CC)(c2cccc(O)c2)CC1` showed a pKi of 5.58.

`CCCCN1C/C(=C\c2ccc(Br)cc2)C(=O)/C(=C/c2ccc(Br)cc2)C1` had a negative-log Ki (pKi) of 6.00.

Take `CCOc1ccc(NC(=O)C2CCCN(CCc3ccccc3)C2)cc1` (centres undefined): the pKi is 5.00.

The compound `CCCCN(CC)CC(C(C)=O)C1=C(O)OC2C=CC=CC2C1=O` (centres undefined) had a pKi of 5.00.

Compound `CCC(=O)OC1(c2ccccc2)CCN(CCCC(=O)c2ccccc2)CC1` had a pKi of 6.37.

On to `CCCCCN1CCN(C(CC(=O)c2ccccc2)C(=O)c2ccccc2)CC1` (centres undefined), for which the pKi is 5.00. Against the preceding compound, the pKi is 1.37 log units lower.

Compound `O=C(CCCN1CCN2Cc3[nH]c4ccccc4c3CC2C1)c1ccc(F)cc1` (centres undefined) [BIRIPERONE] showed a pKi of 7.96.

`CCCCN1CSC(=S)N(Cc2ccccc2)C1` had a negative-log Ki (pKi) of 5.00. This pKi is 2.96 log units lower than that of the compound before.

For `Cc1ccc(C)c2c1Sc1c(ccc3ccccc13)N2CCCN(C)C`, the pKi is 6.35.

Compound `CCCN(CCC)CCC(O)c1cc2c(c3ccccc13)CCCC2` (centres undefined) showed a pKi of 5.90.

`CCN(CC)CCCN(C)Cc1c(-c2ccccc2)oc(-c2ccccc2)c1Cl`: the pKi was 5.86. The pKi values of the last two compounds are within 0.2 log units of each other.

Regarding `CN(C)C(=O)C1(c2ccc(Cl)cc2)CCN(CCCC(=O)c2ccc(F)cc2)CC1` [AMIPERONE], the pKi is 7.36.

`CCCCN1CN(CCCC)CN(C(=S)c2c(Cl)cccc2Cl)C1` had a pKi of 5.00.

As to `CCCN(CCC)CN1C(=O)c2ccccc2C1=O`, the pKi is 5.00.

Consider `Cc1ccc2c(c1)Sc1c(ccc3ccccc13)N2CCCN(C)C`, for which the pKi was 5.85. Compared with the last compound, the pKi is 0.85 log units higher.

`O=C(CCCN1CCN2c3ccccc3CCC2C1)c1ccc(F)cc1` (centres undefined) showed a pKi of 7.08. This pKi lies 1.23 log units higher than the previous one.

As for `O=C(CCCCN1CCN2c3ccccc3CCC2C1)c1ccccc1` (centres undefined), the pKi was 6.53. Compared with the last compound, the pKi is 0.55 log units lower.

Take `O=C(OC1(c2nccc3ccccc23)CCN(CCc2ccccc2)CC1)c1ccccc1`: the pKi is 6.00.

`CCCCN(CCCC)Cc1c(C)nc2cc(OC)ccc2c1O` showed a pKi of 5.00.

`CCC(=O)OC1(c2ccccc2)CCN(CCC(=O)c2ccccc2)CC1C` (centres undefined) showed a pKi of 5.00.

Compound `c1ccc2c3c([nH]c2c1)CCN1CCN(CCc2ccncc2)CC31` (centres undefined) had a pKi of 5.00.

For the compound `N#CCCN(CCCN1CCOCC1)CN1C(=O)c2ccccc2C1=O`, the pKi is 5.00.

In turn, `CC(=O)NCC1(c2ccccc2)CCN(CCCC(=O)c2ccc(F)cc2)CC1` [ACEPERONE] showed a pKi of 5.00.

In the case of `CCn1c2ccccc2c2cc(NCCCN(C)C)ccc21`, the negative logarithm of the Ki (pKi) was 5.00.
